In this assay the test system is 885512-296-R-J2-PDC complex spheroid growth, % test/control. The assay is described as follows: Anticancer human tumor 885512-296-R-J2-PDC patient-derived breast carcinoma cell line growth inhibition [Asc]. The note with it: for viability, T/C: stronger effect = lower value. A digest of the protocol:
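Stromal components (HUVEC and hMSC) are co-assembled with the cancer cells into multicellular spheroids. Drugs are then added singly or paired, at concentrations falling by half-log increments from a clinically achievable maximum, capped at 10 microM without known Cmax.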

Structures are written as SMILES. “And” between values parts separate entries of the source, which are not always exact repeats. Identical values can stand only once. Some results are limits rather than exact numbers.
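Also: spheroids exposed to compounds for seven days.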
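For viability, T/C in this document: 100% = DMSO vehicle control wells.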

Turning to `CCN1C(C(=O)NC23CCC(C(=O)O)(CC2)CC3)C(c2cccc(Cl)c2F)C2(C(=O)Nc3cc(Cl)ccc32)C12CCCCC2` (configuration not stated) + Cc1c(S(C)(=O)=O)c(-c2cc(F)cc(N3CCN(c4ccc(NS(=O)(=O)c5ccc(NC(CCN6CCC(C(=O)OCCCP(=O)(O)O)CC6)CSc6ccccc6)c(S(=O)(=O)C(F)(F)F)c5)cc4)CC3)c2)c(-c2ccc(Cl)cc2)n1C(C)C, the IC50 is 2.46 µM (curve of first compound, second compound 0.1 µM); 1.82 µM (curve of first compound, second compound 0.316 µM); 2.37 µM (curve of first compound, second compound 1 µM); above 3 µM (curve of first compound, second compound 3.16 µM); above 3 µM (curve of first compound, second compound 10 µM). In addition, the viability, T/C runs as follows: (second compound 0.1 µM, first compound 0.00949 µM) 90.8%; (second compound 0.1 µM, first compound 0.03 µM) 96.3%; (second compound 0.1 µM, first compound 0.0949 µM) 99.4%; (second compound 0.1 µM, first compound 0.3 µM) 72.8%; (second compound 0.1 µM, first compound 0.949 µM) 73.8%; (second compound 0.1 µM, first compound 3 µM) 45.1%. Moreover, the viability, T/C (second compound 0.316 µM, first compound 0.00949 µM) was 86.7%; the viability, T/C (second compound 0.316 µM, first compound 0.03 µM) is 101%; the viability, T/C (second compound 0.316 µM, first compound 0.0949 µM) was 99.6%; the viability, T/C (second compound 0.316 µM, first compound 0.3 µM) was 80.8%; the viability, T/C (second compound 0.316 µM, first compound 0.949 µM) is 64.4%; the viability, T/C (second compound 0.316 µM, first compound 3 µM) is 39.8%. Further, the viability, T/C (second compound 1 µM, first compound 0.00949 µM) was 103%; the viability, T/C (second compound 1 µM, first compound 0.03 µM) is 79.3%; the viability, T/C (second compound 1 µM, first compound 0.0949 µM) was 85%; the viability, T/C (second compound 1 µM, first compound 0.3 µM) was 71.9%; the viability, T/C (second compound 1 µM, first compound 0.949 µM) was 67.1%; the viability, T/C (second compound 1 µM, first compound 3 µM) was 42%. The viability, T/C is, setting by setting: (second compound 3.16 µM, first compound 0.00949 µM) 109%; (second compound 3.16 µM, first compound 0.03 µM) 100%; (second compound 3.16 µM, first compound 0.0949 µM) 98.6%; (second compound 3.16 µM, first compound 0.3 µM) 95.4%; (second compound 3.16 µM, first compound 0.949 µM) 78%; (second compound 3.16 µM, first compound 3 µM) 52.4%. The viability, T/C (second compound 10 µM, first compound 0.00949 µM) is 129%; the viability, T/C (second compound 10 µM, first compound 0.03 µM) is 101%; the viability, T/C (second compound 10 µM, first compound 0.0949 µM) was 119%; the viability, T/C (second compound 10 µM, first compound 0.3 µM) is 124%; the viability, T/C (second compound 10 µM, first compound 0.949 µM) is 112%; the viability, T/C (second compound 10 µM, first compound 3 µM) was 79.6%.
As to `C#Cc1c(F)ccc2cc(O)cc(-c3ncc4c(N5CC6CCC(C5)N6)nc(OCC56CCCN5CC(F)C6)nc4c3F)c12` (configuration not stated), the viability, T/C is, setting by setting: (compound 0.0316 µM) 93.6% and 96.8% and 95.3%; (compound 0.1 µM) 103% (2×) and 91.5%; (compound 0.316 µM) 89.2% and 72.3% and 99.9%; (compound 1 µM) 99.7% and 72.6% and 93.5%; (compound 3.16 µM) 101% and 93.8% and 87.5%; (compound 10 µM) 97.2% and 80.2% and 71.9%. In addition, the IC50 (curve of compound) is above 10 µM.

The IC50 is the point on the concentration scale where inhibition reaches its midpoint. In general, viability, T/C refers to the ratio of treated to control.

The values are drawn from PubChem BioAssay AID1963447 (Molecular Pharmacology Branch, DTP, NCI, 2024).
